Assay [1] has as its target T1, Dihydrofolate reductase (Pneumocystis carinii, UniProt P16184).
T1 sequence (P16184 whole entry): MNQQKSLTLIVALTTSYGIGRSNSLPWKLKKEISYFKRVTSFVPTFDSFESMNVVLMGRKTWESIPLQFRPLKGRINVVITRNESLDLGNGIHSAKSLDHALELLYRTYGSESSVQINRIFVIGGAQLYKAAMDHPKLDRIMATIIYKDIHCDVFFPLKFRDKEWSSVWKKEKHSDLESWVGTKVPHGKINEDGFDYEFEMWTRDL
Description: Inhibitory activity against dihydrofolate reductase from pneumocystis carinii

Assay [2] concerns the target T2, Dihydrofolate reductase (Rattus norvegicus, UniProt Q920D2).
T2 sequence (Q920D2 whole entry): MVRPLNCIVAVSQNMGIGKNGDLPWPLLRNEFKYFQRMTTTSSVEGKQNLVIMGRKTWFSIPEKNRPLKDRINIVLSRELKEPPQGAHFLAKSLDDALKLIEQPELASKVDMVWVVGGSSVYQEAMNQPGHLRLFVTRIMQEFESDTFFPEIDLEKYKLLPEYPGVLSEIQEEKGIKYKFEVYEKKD
Description: Inhibitory activity against dihydrofolate reductase from rat liver

Assay [3] concerns the target T3, Bifunctional dihydrofolate reductase-thymidylate synthase (Toxoplasma gondii, UniProt Q07422).
T3 sequence (Q07422 whole entry): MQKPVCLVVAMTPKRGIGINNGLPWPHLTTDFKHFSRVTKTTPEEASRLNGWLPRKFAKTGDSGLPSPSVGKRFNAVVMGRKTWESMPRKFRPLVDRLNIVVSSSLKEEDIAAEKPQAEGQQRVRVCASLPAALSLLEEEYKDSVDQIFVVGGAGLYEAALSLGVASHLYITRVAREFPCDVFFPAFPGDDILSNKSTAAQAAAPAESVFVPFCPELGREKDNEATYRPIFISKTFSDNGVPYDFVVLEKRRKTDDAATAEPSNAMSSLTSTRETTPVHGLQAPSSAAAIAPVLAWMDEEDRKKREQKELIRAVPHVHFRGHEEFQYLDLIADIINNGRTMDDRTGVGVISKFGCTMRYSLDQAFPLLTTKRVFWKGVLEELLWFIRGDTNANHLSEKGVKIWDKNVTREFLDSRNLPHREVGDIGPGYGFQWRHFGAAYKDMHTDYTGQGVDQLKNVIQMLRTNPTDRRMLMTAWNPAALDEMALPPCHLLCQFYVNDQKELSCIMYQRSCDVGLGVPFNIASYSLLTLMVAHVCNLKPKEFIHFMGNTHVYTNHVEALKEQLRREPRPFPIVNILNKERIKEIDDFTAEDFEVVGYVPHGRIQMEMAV
Description: Inhibitory activity against dihydrofolate reductase from Toxoplasma gondii

Drawing on ChEMBL document CHEMBL1131327, “Selective Pneumocystis carinii dihydrofolate reductase inhibitors: design, synthesis, and biological evaluation of new 2,4-diamino-5-substituted-furo[2,3-d]pyrimidines” (J Med Chem, 1998), this text covers IC50 for eleven molecules.

pIC50: −log10 of the molar value. Where only a bound is given, the exact number is not on record here.

The pIC50 is −log10 of the IC50, conventionally taken in molar units. Read a high pIC50 as a low IC50. `CN(Cc1coc2nc(N)nc(N)c12)c1ccc2ccccc2c1`: the negative-log IC50 (pIC50) against Dihydrofolate reductase [1] is 4.83; on Dihydrofolate reductase [2] it was 4.84.

`Nc1nc(N)c2c(CSc3ccccc3)coc2n1`: the negative logarithm of the IC50 (pIC50) (against Dihydrofolate reductase [1]; in assay [3]) was below 4.59 each time.

On to `COc1ccc(OC)c(N(C)Cc2coc3nc(N)nc(N)c23)c1`, for which the pIC50 (against Dihydrofolate reductase [1]; in assay [3]; against Dihydrofolate reductase [2]) was below 4.57 throughout.

For the molecule `CN(Cc1coc2nc(N)nc(N)c12)c1ccc(Cl)c(Cl)c1`, the pIC50 at Dihydrofolate reductase [1] was 4.35; in assay [3], below 4.57; on Dihydrofolate reductase [2] it was below 4.57.

Turning to `Nc1nc(N)c2c(CNc3ccc(Oc4ccccc4)cc3)coc2n1`, the pIC50 in assay [3] is 4.49.

Take `Nc1nc(N)c2c(CNc3ccccc3Oc3ccccc3)coc2n1`: the pIC50 (against Dihydrofolate reductase [1]; in assay [3]; against Dihydrofolate reductase [2]) was below 4.92 throughout.

Turning to `COc1cccc(NCc2coc3nc(N)nc(N)c23)c1`, the negative-log IC50 (pIC50) (at Dihydrofolate reductase [1]; in assay [3]; on Dihydrofolate reductase [2]) was below 4.50 in each case.

Take `Nc1nc(N)c2c(CNc3ccccc3-c3ccccc3)coc2n1`: the pIC50 at Dihydrofolate reductase [2] was 3.86.

In assay [3], `Nc1nc(N)c2c(CNc3cc(Cl)ccc3Cl)coc2n1` gave a pIC50 below 4.33.

Consider `CN(Cc1coc2nc(N)nc(N)c12)c1cc(Cl)c(Cl)c(Cl)c1`, for which the negative-log IC50 (pIC50) against Dihydrofolate reductase [1] is 3.55.

On to `Nc1nc(N)c2c(CNc3ccc4ccccc4c3)coc2n1`, for which the pIC50 is 4.39 on Dihydrofolate reductase [1], 4.42 in assay [3] and 4.44 at Dihydrofolate reductase [2].
